Test results published in ChEMBL document CHEMBL2069260, “Synthesis and evaluation of novel 2-pyridone derivatives as inhibitors of phosphodiesterase3 (PDE3): a target for heart failure and platelet aggregation” (Bioorg Med Chem Lett, 2012).

Key:
Type in all cases: protein assay
Phosphodiesterase 3 [1] = biological target: T1, Phosphodiesterase 3 (Homo sapiens, UniProt Q14432+Q13370); experiment: Inhibition of PDE3 at 100 nmol by Biomol Green quantizyme assay system
Phosphodiesterase 3 [2] = biological target: T1, Phosphodiesterase 3; experiment: Inhibition of PDE3 at 500 uM by Biomol Green quantizyme assay system
Phosphodiesterase 3 [3] = biological target: T1, Phosphodiesterase 3; experiment: Inhibition of PDE3 by Biomol Green quantizyme assay system
Phosphodiesterase 3 [4] = biological target: T1, Phosphodiesterase 3; experiment: Inhibition of PDE3 at 1 nM by Biomol Green quantizyme assay system
Phosphodiesterase 3 [5] = biological target: T1, Phosphodiesterase 3; experiment: Inhibition of PDE3 at 10 uM by Biomol Green quantizyme assay system

| inhibition (Phosphodiesterase 3 [1]) | inhibition (Phosphodiesterase 3 [2]) | IC50 (Phosphodiesterase 3 [3]) | inhibition (Phosphodiesterase 3 [4]) | inhibition (Phosphodiesterase 3 [5]) | SMILES |
| --- | --- | --- | --- | --- | --- |
| 7.69% | 80.4% | 423.2 µM | 0% |  | Cc1[nH]c(=O)c(Cc2ccccc2Cl)cc1C#N |
|  | 41.2% |  |  |  | Cc1[nH]c(=O)c(Cc2ccc(Cl)cc2)cc1C#N |
|  | 85.9% | 1.68 µM | 34% | 72.4% | Cc1ccc(Cc2cc(C#N)c(C)[nH]c2=O)cc1 |
| 47.7% | 79.1% | 38.5 µM | 44.6% |  | CCOC(=O)c1cc(Cc2ccc(Br)cc2)c(=O)[nH]c1C |
|  | 80.1% | 172.5 µM | 0% | 35.4% | CCOC(=O)c1cc(Cc2ccc(C)cc2)c(=O)[nH]c1C |
|  | 79.5% | 280.7 µM | 0% | 23.1% | Cc1[nH]c(=O)c(Cc2ccc(Cl)cc2Cl)cc1C#N |
|  | 17.3% |  |  |  | Cc1[nH]c(=O)c(Cc2ccc(Br)cc2)cc1C#N |
|  | 4.3% |  |  |  | N#Cc1cc(Cc2ccc(Br)cc2)c(=O)[nH]c1-c1ccccc1 |
| 38.5% | 84.6% | 128.3 µM | 35.4% |  | Cc1[nH]c(=O)c(Cc2ccccc2)cc1C#N |

More lines, now with the values behind:

| SMILES | inhibition (Phosphodiesterase 3 [1]) | inhibition (Phosphodiesterase 3 [2]) | IC50 (Phosphodiesterase 3 [3]) | inhibition (Phosphodiesterase 3 [4]) | inhibition (Phosphodiesterase 3 [5]) |
| --- | --- | --- | --- | --- | --- |
| CCOC(=O)c1cc(Cc2ccc(Cl)cc2)c(=O)[nH]c1C |  | 43% |  |  |  |
| CCOC(=O)c1cc(Cc2ccccc2)c(=O)[nH]c1C |  | 42.9% |  |  |  |
| CCOC(=O)c1cc(Cc2ccc(Br)cc2)c(=O)[nH]c1-c1ccccc1 | 21.5% | 74.1% | 8.47 µM |  | 55.4% |
| CCOC(=O)c1cc(Cc2ccccc2)c(=O)[nH]c1-c1ccccc1 |  | 83% | 7.3 µM | 33.9% | 55.4% |
| CCCc1cc(C(=O)OCC)c(C)[nH]c1=O | 40% | 78.2% | 125.1 µM | 6.15% |  |
| CCOC(=O)c1cc(Cc2cccc(Cl)c2)c(=O)[nH]c1-c1ccccc1 |  | 80.9% | 312.4 µM | 0% | 20% |
| CCOC(=O)c1cc(Cc2ccccc2Cl)c(=O)[nH]c1C |  | 53.9% |  |  |  |
| Cc1[nH]c(=O)c(C#N)cc1-c1ccncc1 |  | 90.6% |  |  | 91.7% |
| COC(=O)c1cc(Cc2ccccc2)c(=O)[nH]c1C | 36.9% | 76.7% | 163.5 µM | 21.5% |  |
| COC(=O)c1cc(Cc2ccccc2Cl)c(=O)[nH]c1C | 36.9% | 85.8% | 2.66 µM |  | 87.7% |
| CCOC(=O)c1cc(Cc2ccc(Cl)cc2Cl)c(=O)[nH]c1C | 30.8% | 78.3% | 172.13 µM |  | 35.4% |
| CCOC(=O)c1cc(Cc2ccc(C)cc2)c(=O)[nH]c1-c1ccccc1 |  | 42.2% |  |  |  |
| CCOC(=O)c1cc(Cc2ccc(Cl)cc2)c(=O)[nH]c1-c1ccccc1 |  | 1.1% |  |  |  |
| N#Cc1cc(Cc2ccccc2)c(=O)[nH]c1-c1ccccc1 |  | 22.5% |  |  |  |
| CCOC(=O)c1cc(Cc2cccc(Cl)c2)c(=O)[nH]c1C | 30.8% | 83.2% | 7.49 µM |  | 56.9% |
